Assay results: US20130095520A1, “METHOD FOR DETECTION OF UROTHELIAL CANCER” (NATIONAL UNIVERSITY CORPORATION KOCHI UNIVERSITY, priority 2010, published 2013)
Counter-ions that a name gives are not always drawn.

Test system: cancer cells in the urine (urothelial / bladder cancer)
Test: Detection of PPIX fluorescence in cells of urine collected after oral ALA hydrochloride (fluorescence microscopy of urinary sediment)
Type: in vivo, human
Details: 1 g ALA hydrochloride oral in 50 ml orange juice; patient suspected of bladder cancer (about 60 kg); urine collected after about 4 hours; FIG. 1
Procedure: 1 g of ALA hydrochloride was dissolved in 50 ml of orange juice, and was given to a patient suspected of having bladder cancer (body weight about 60 kg). Urine was collected after about 4 hours, which was immediately centrifuged (3000 rpm/min., 15 min.) in a light shielded state, and was confirmed by microscopic visualization using sediments. The microscope used was OLYMPUS BX50CCD mounted with camera OLYMPUS DP70. The mirror set was Exciter: XF1076 400AF30 Dichroic:XF2007 475DCLP, Emitter: XF3090 585ALP (OMEGA OPTICAL), all of which being a standard fluorescence microscope system.
The detection method was performed in the same way as Example 1, except that the dosage amount was changed to 500 mg, which is the half amount of Example 1.

In the case of `NCC(=O)CCC(=O)O` [ALA hydrochloride, 5-aminolevulinic acid], the “PPIX fluorescence in cells separated from the urine” value was “a clear PPIX fluorescence derived from cancer cell was observed”.
